Laboratory results: patent US20110150769A1, “IDENTIFICATION AND USE OF COMPOUNDS FOR TREATING PERSISTENT PAIN” (priority 2009, published 2011)

Key:
DRG neurons = assay: Calcium imaging of cultured DRG neurons; assay type: cell-based, mouse; details: for percentage of DRG neurons responding, WT vs MrgprA1GFP/GFP mice: comparison of WT and MrgprA1GFP/GFP mice
Protocol: Calcium Imaging of Cultured Dorsal Root Ganglia (DRG) Neurons
DRG neurons were plated on poly-D-lysine/laminin-coated coverslips and cultured for 24 hours. […] Briefly, neurons were loaded with Fura 2-acetomethoxy ester (Molecular Probes) for 30 min in dark at room temperature. After washing, neurons were imaged at 340/380 nm excitation to detect intracellular free calcium. All tests were performed with an experimenter blinded to the genotype.

[1] = system: small-diameter primary sensory neurons (DRG neurons); assay: Whole-cell recordings of cultured DRG neurons (evoked action potentials); assay type: cell-based, mouse
Protocol: Whole-Cell Voltage-Clamp Recordings of Cultured DRG Neurons
Dissociated DRG neurons were plated on coverslips and cultured for 2-7 hours. For clamp recording, coverslips were perfused with extracellular solution (ECS) consisting of (in mM): NaCl 140, KCl 4, CaCl2 2, MgCl2 2, HEPES 10, Glucose 5, with pH adjusted to 7.38 using NaOH. Neurons with cell body diameters between 22 and 25 μm were recorded in the whole-cell voltage-clamp configuration with electrodes (pipette solution in mM: KCl 135, MgATP 3, Na2ATP 0.5, CaCl2 1.1, EGTA 2, Glucose 5, pH adjusted to 7.38) using an Axon 700B amplifier and the pCLAMP 9.2 software package (Axon Instruments). Electrodes were pulled (Narishige, Model pp-830) from borosilicate glass (WPI, Inc), and after filling they had resistances of 2-4 MΩ. Neurons were perfused with […] FMRFamide for 30 seconds and washed for 3 minutes. Action potentials were elicited with prolonged injections (500 ms) of a depolarizing current (200 pA) before and after FMRFamide treatment. All experiments were performed at room temperature with an experimenter blinded to the genotype.

[2] = adult mutant (Mrgpr-clusterΔ−/−) DRG neurons

Substance | responses in DRG neurons (DRG neurons; [2]) | percentage of DRG neurons responding, WT vs MrgprA1GFP/GFP mice (DRG neurons) | responses in DRG neurons (DRG neurons; newborn Mrgpr-clusterΔ−/− mice) | firing rate ([1]; Mrgpr-deficient neurons) | number of action potentials evoked by injection of depolarizing current ([1]; WT DRG neurons, current-clamp) | cells with sensitizing effect / cells recorded ([1]; WT adult DRG neurons, cell body diameter 22 to 25 μm) | average number of action potentials after treatment ([1]; WT neurons, n=10, 500 ms, 200 pA depolarizing current, before treatment 3.6±1.6) | cells with sensitizing effect / cells recorded ([1]; neurons from Mrgpr-clusterΔ−/− mice)
FMRFamide | no responses | did not differ significantly | few or no responses | did not show an increase in firing rate | significant increase | 10 of 23 | 7.7±1.9 | 1 of 20
NPFF | no responses | did not differ significantly | few or no responses | – | – | – | – | –
